Data as given in ChEMBL document CHEMBL1201862, “PubChem BioAssay data set” (2004).
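Dose response: 5 concentrations. Exposure: 48 h. Format: 96-well plates. Endpoint: linear interpolation; highest concentration if not reached. Abbreviation: GI50, concentration required for 50% inhibition of growth.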 Active and inactive are the calls of the source. Rule as the data show it: active = GI50 up to about 1.1 µM and inactive = higher.

Tests used:
Experiment in all cases: NCI-60 cell line screen, 48 h
HOP-18 = system: HOP-18
SNB-78 = system: SNB-78
XF498 = system: XF498
DMS-273 = system: DMS-273
LXFL 529 = system: LXFL 529
DLD-1 = system: DLD-1
DMS-114 = system: DMS-114
BT-549 = system: BT-549

Structure (SMILES)	GI50 (SNB-78)	GI50 (XF498)	GI50 (DMS-273)	GI50 (LXFL 529)	GI50 (DMS-114)	GI50 (BT-549)	other results
Nc1c(-c2ccc(-c3c(N)[n+]([O-])c4ccccc4[n+]3[O-])cc2)[n+]([O-])c2ccccc2[n+]1[O-]	8.39 µM (inactive)	11.5 µM (inactive)	14.2 µM (inactive)	7.87 µM (inactive)	3.4 µM (inactive)	–	GI50 (HOP-18): 7.67 µM (inactive); GI50 (DLD-1): 11.8 µM (inactive)
CC(=O)NNc1nc(C)c(C(/C=C/c2ccc(/C=C/C(=N\NC(=O)c3ccncc3)c3sc(NNC(C)=O)nc3C)cc2)=N/NC(=O)c2ccncc2)s1	> 100 µM (inactive)	–	–	> 100 µM (inactive)	> 100 µM (inactive)	–	GI50 (DLD-1): > 100 µM (inactive)
Nc1c2c(nc3ccccc13)-c1ccccc1CCC2	–	–	–	–	–	17.6 µM (inactive)	–
FC(F)(F)c1ccc2nc(Nc3ccc(Cl)c(Cl)c3)c(-c3ccccc3)nc2c1	27.4 µM (inactive)	31.2 µM (inactive)	6.55 µM (inactive)	8.3 µM (inactive)	–	–	GI50 (HOP-18): > 100 µM (inactive)
FC(F)(F)c1cccc(-c2nc3nc(Cl)c(Cl)nc3[nH]2)c1	–	–	–	–	–	3.18 µM (inactive)	–
C=CCNc1nc2c(s1)C(=O)c1ccccc1C2=O	24.4 µM (inactive)	20.4 µM (inactive)	9.82 µM (inactive)	11.4 µM (inactive)	1.77 µM (inactive)	–	GI50 (HOP-18): 11 µM (inactive)
Cc1cc2c(cc1C)C(=O)c1ncccc1C2=O	–	–	–	–	–	40.9 µM (inactive)	–
COc1ccc2nc3cc([N+](=O)[O-])ccc3c(Nc3ccc(S(=O)(=O)N=C(N)N)cc3)c2c1	–	–	–	–	–	33.2 µM (inactive)	–
COc1cc(CCC(=O)NS(=O)(=O)c2ccccc2)cc(OC)c1OC	> 100 µM (inactive)	> 100 µM (inactive)	> 100 µM (inactive)	> 100 µM (inactive)	> 100 µM (inactive)	–	GI50 (HOP-18): 72.6 µM (inactive); GI50 (DLD-1): > 100 µM (inactive)
CCN(CC)CCCNc1nccc2c(C)c3c(cc12)c1cnccc1n3C	0.807 µM (active)	0.16 µM (active)	0.0353 µM (active)	–	0.0501 µM (active)	–	GI50 (HOP-18): < 0.01 µM (active); GI50 (DLD-1): 0.0244 µM (active)
O=c1ncccn1[C@@H]1O[C@H](CO)[C@H](O)C1O (stereo partly drawn)	> 99.5 µM (inactive)	> 100 µM (inactive)	> 77.1 µM (inactive)	> 100 µM (inactive)	> 100 µM (inactive)	–	GI50 (HOP-18): > 100 µM (inactive); GI50 (DLD-1): > 100 µM (inactive)
CCOC(=O)CCC(NC(=O)c1ccc(CNc2nc3cc(N)cc(N)c3nc2-c2ccccc2)cc1)C(=O)OCC (stereo not drawn)	–	–	–	–	–	> 100 µM (inactive)	–
COc1cc(C=O)cc(/C=N/N=C/c2ccccc2O)c1O	–	–	–	–	–	10.2 µM (inactive)	–
COC(=O)C(Cc1ccccc1)NP(=O)(O)OCC1OC(n2ccc(N)nc2=O)C(O)C1O (stereo not drawn)	–	–	–	–	–	> 100 µM (inactive)	–
COC1=CC(=O)c2ccc(C(C)C)cc2C1(C)C1=NC(C)(C)CO1 (stereo not drawn)	–	> 100 µM (inactive)	> 100 µM (inactive)	> 100 µM (inactive)	> 100 µM (inactive)	–	GI50 (HOP-18): > 100 µM (inactive); GI50 (DLD-1): > 100 µM (inactive)
O=C(NC12CC3CC(CC(C3)C1)C2)C(=O)c1c[nH]c2ccc(Cl)cc12	83.2 µM (inactive)	14.7 µM (inactive)	16.8 µM (inactive)	21.8 µM (inactive)	66.8 µM (inactive)	–	–
Cc1nn(-c2ccccc2)c2nc3ccc(Cl)cc3c(-c3ccccc3)c12	–	–	–	–	–	> 100 µM (inactive)	–
Cc1cn(C2CC(n3cc(Cn4cc(F)c(=O)[nH]c4=O)nn3)C(CO)O2)c(=O)[nH]c1=O (stereo not drawn)	–	–	–	–	–	> 100 µM (inactive)	–
O=C(Cn1c(-c2ccccc2)cc2ccccc21)N1CCCC1	–	–	–	–	–	> 100 µM (inactive)	–
Cn1ncc2c(NCc3ccccc3)ncnc21	–	–	–	–	–	> 100 µM (inactive)	–
COc1cc2c3cc1Oc1c(OC)c(OC)cc4c1C(Cc1ccc(O)c(c1)Oc1ccc(cc1)CC3N(C)CC2)CN(C)C4 (stereo not drawn)	–	–	–	–	–	14.8 µM (inactive)	–
N#CCC(=O)NC1C2CC3CC(C2)CC1C3 (stereo not drawn)	20.5 µM (inactive)	–	21.6 µM (inactive)	28.1 µM (inactive)	16 µM (inactive)	–	GI50 (DLD-1): 20.2 µM (inactive)
O=C(Cn1c(C(=O)/C=C/c2ccco2)nc2ccccc21)c1ccc(Cl)cc1	–	–	–	–	–	14.9 µM (inactive)	–
CCOC1OC(COC(=O)C(C)(C)C)C(O)CC1n1cc(C)c(=O)[nH]c1=O (stereo not drawn)	–	–	–	–	–	> 100 µM (inactive)	–
COC(=O)c1cc(C)ccc1C1CN=NC12Cc1c(C)cc(C)cc1C2=O (stereo not drawn)	–	–	–	–	–	24.7 µM (inactive)	–
OC(CCN1CCCCC1)(c1ccccc1)c1ccccc1 [PRIDINOL]	–	–	–	–	–	> 100 µM (inactive)	–
COc1ccc(C(OCC2OC3(COC(c4ccccc4)(c4ccc(OC)cc4)c4ccc(OC)cc4)C(Oc4nc(=O)ccn43)C2O)(c2ccccc2)c2ccc(OC)cc2)cc1 (stereo not drawn)	–	–	–	–	–	> 100 µM (inactive)	–
CCOC(=O)C(Oc1ccc(OC)c2c1C(=O)CCC2)c1ccccc1 (stereo not drawn)	74 µM (inactive)	> 100 µM (inactive)	98.9 µM (inactive)	> 100 µM (inactive)	84.7 µM (inactive)	–	GI50 (DLD-1): > 100 µM (inactive)
N#C/C(=C/NC(=S)Nc1ccc(S(N)(=O)=O)cc1)C(N)=O	–	–	–	–	–	> 100 µM (inactive)	–
CCOC(=O)C(C(=S)SC)c1nn2c(=O)cc(C)nc2s1 (stereo not drawn)	–	–	–	–	–	16.9 µM (inactive)	–
